Experimental data reported in patent US7888474B2, “HDM2 polypeptides” (Schering Corporation, priority 2007, dated 2011).

Tests used:
HDM2 [1] = biological target: T1, HDM2 (Homo sapiens, UniProt Q00987); assay: Fluorescent polarization assay (FAM-labeled p53 peptide ligand competition); type: binding; details: 10 nM HDM2 protein, 1 nM FAM-labeled p53 peptide ligand, PBS buffer; for Ki: non-linear regression
HDM2 [2] = biological target: T1, HDM2; assay: TdF assay (thermal melting with Sypro Orange); type: binding; details: 6 uM HDM2, 10 mM HEPES pH 7.4, 150 mM NaCl, 1 mM DTT, 10 and 20 uM compound

T1 sequence (Q00987 whole entry): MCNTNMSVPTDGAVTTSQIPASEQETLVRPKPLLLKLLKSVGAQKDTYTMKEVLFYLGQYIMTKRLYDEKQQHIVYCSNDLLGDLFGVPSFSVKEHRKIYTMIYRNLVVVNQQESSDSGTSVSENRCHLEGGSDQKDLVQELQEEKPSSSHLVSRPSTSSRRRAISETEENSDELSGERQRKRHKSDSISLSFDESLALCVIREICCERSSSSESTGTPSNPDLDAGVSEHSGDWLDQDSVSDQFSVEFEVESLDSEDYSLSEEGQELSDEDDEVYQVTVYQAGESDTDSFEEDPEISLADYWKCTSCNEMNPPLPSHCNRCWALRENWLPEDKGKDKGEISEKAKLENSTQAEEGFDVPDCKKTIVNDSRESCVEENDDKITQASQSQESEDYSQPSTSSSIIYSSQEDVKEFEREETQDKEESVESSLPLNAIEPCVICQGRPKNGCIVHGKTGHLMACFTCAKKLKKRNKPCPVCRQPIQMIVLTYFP

SMILES: COCCOc1ccccc1N1CCN(C(=O)[C@]2(Oc3ccc(C(F)(F)F)cc3)CCCN(C(=O)c3cnccc3C(F)(F)F)[C@@H]2C(O)C(C)O)CC1 (stereo partly drawn) [Compound 4]
- IC50 (HDM2 [1]): < 5000 nM
- Ki (HDM2 [1]): < 2000 nM
- Kd (HDM2 [2]): < 2000 nM

SMILES: O=C(c1cnccc1C(F)(F)F)N1CCCC(Oc2ccc(C(F)(F)F)cc2)(C(=O)N2CCN(c3ccccn3)CC2)C1 (stereo not drawn) [Compound 1]
- IC50 (HDM2 [1]): < 5000 nM
- Ki (HDM2 [1]): < 2000 nM
- Kd (HDM2 [2]): < 2000 nM
